Results on 16 compounds are retold here after ChEMBL document CHEMBL4339253, “Anthraquinone-Based Specialized Metabolites from Rhizomes of Bulbine natalensis” (J Nat Prod, 2019).

Structures are written as SMILES. The source made the active and inactive calls. The rule behind the calls is not given here. Where only a bound is given, the exact number is not on record here.

What is called IC50 is the concentration at which inhibition is half-maximal.

What all share (assay type): functional, organism-based
The test system of test [1] is Aspergillus fumigatus. Description: Antimicrobial activity against Aspergillus fumigatus ATCC 90906 assessed as inhibition of microbial growth up to 20 ug/mL by CLSI based method.
The subject of test [2] is Mycobacterium intracellulare. Description: Antimicrobial activity against Mycobacterium intracellulare assessed as inhibition of microbial growth up to 20 ug/mL.
Test [3] relates to Escherichia coli. The test is described as follows: Antimicrobial activity against Escherichia coli ATCC 35218 assessed as inhibition of microbial growth up to 20 ug/mL by CLSI based method.
The subject of test [4] is Cryptococcus neoformans. The test is described as follows: Antimicrobial activity against Cryptococcus neoformans ATCC 90113 assessed as inhibition of microbial growth up to 20 ug/mL by CLSI based method.
Test [5] relates to Pseudomonas aeruginosa. Description: Antimicrobial activity against Pseudomonas aeruginosa ATCC 27853 assessed as inhibition of microbial growth up to 20 ug/mL by CLSI based method.
In test [6] the test system is Staphylococcus aureus. Description: Antimicrobial activity against methicillin-resistant Staphylococcus aureus ATCC 43300 assessed as inhibition of microbial growth up to 20 ug/mL by CLSI based method.
Test [7] concerns Candida albicans. The test is described as follows: Antimicrobial activity against Candida albicans ATCC 90028 assessed as inhibition of microbial growth up to 20 ug/mL by CLSI based method.
The subject of test [8] is Aspergillus fumigatus. The test is described as follows: Antimicrobial activity against Aspergillus fumigatus ATCC 90906 assessed as inhibition of microbial growth by CLSI based method.
For test [9], the system named is Pseudomonas aeruginosa. Description: Antimicrobial activity against Pseudomonas aeruginosa ATCC 27853 assessed as inhibition of microbial growth by CLSI based method.
Test [10] concerns Cryptococcus neoformans. The test is described as follows: Antimicrobial activity against Cryptococcus neoformans ATCC 90113 assessed as inhibition of microbial growth by CLSI based method.
Test [11] concerns Candida albicans. Description: Antimicrobial activity against Candida albicans ATCC 90028 assessed as inhibition of microbial growth by CLSI based method.
In test [12] the test system is Staphylococcus aureus. Description: Antimicrobial activity against methicillin-resistant Staphylococcus aureus ATCC 43300 assessed as inhibition of microbial growth by CLSI based method.
For test [13], the system named is Escherichia coli. Description: Antimicrobial activity against Escherichia coli ATCC 35218 assessed as inhibition of microbial growth by CLSI based method.

As to `CC1=CC(O)=C2C(=O)c3c(O)cccc3C(c3ccc4c(c3O)C(=O)c3c(O)cc(C)cc3C4=O)=C2C1=O`, the “growth inhibition (GI)” value in test [1], in [2], in test [3], in test [4], in [5] and in test [6] was “inactive” in each case. For the same compound, in [7], the “growth inhibition (GI)” value is “inactive”.

For `COc1cccc(OC)c1C(=O)N[C@@H]1C(=O)N2[C@@H]1SC(C)(C)[C@@H]2C(=O)O` [METHICILLIN], the IC50 in test [8] is over 300 µM; in test [9] it was 0.3 µM; in test [10] it was over 300 µM; in test [11], over 300 µM; in test [12], 30 µM.

Turning to `COc1cc(OC)c(C2=C(C)C=C(O)C3C(=O)c4c(O[C@@H]5O[C@H](CO[C@@H]6O[C@H](CO)[C@@H](O)[C@H](O)[C@H]6O)[C@@H](O)[C@H](O)[C@H]5O)cccc4C(=O)C23)c(O)c1C(C)=O` (some centres undefined), the “growth inhibition (GI)” value in test [1], in [2], in test [3], in [4], in test [5] and in [6] was “inactive” each time. In test [7], the “growth inhibition (GI)” value is “inactive”.

Turning to `C[C@@H]1[C@H](O)[C@@H](C)/C=C/C=C/C=C/C=C/C=C/C=C/C=C/[C@H](O[C@@H]2O[C@H](C)[C@@H](O)[C@H](N)[C@@H]2O)C[C@@H]2O[C@](O)(C[C@@H](O)C[C@@H](O)[C@H](O)CC[C@@H](O)C[C@@H](O)CC(=O)O[C@H]1C)C[C@H](O)[C@H]2C(=O)O` [AMPHOTERICIN B], the IC50 in test [8] is 1 µM; in [10] it was 0.2 µM; in test [11], under 0.1 µM; in test [12], over 100 µM.

With `CC1=CC(O)=C2C(=O)c3c(O[C@@H]4O[C@H](CO)[C@@H](O)[C@H](O)[C@H]4O)cccc3C(c3ccc4c(c3O)C(=O)c3c(O)cc(C)cc3C4(O)[C@@H]3O[C@@H](C)[C@H](O)[C@@H](O)[C@H]3O)=C2C1=O` (some centres undefined), the “growth inhibition (GI)” value in test [1], in test [2], in test [3], in test [4], in test [5] and in test [6] was “inactive” in each case. The “growth inhibition (GI)” value in test [7] is “inactive”.

On to `COc1cccc2cc3c(c(O)c12)[C@@H](C)OC3`, for which the “growth inhibition (GI)” value in [1], in test [2], in [3], in test [4], in test [5] and in [6] was “inactive” in each case. For the same compound, the “growth inhibition (GI)” value in test [7] was “inactive”.

For the compound `OC(Cn1cncn1)(Cn1cncn1)c1ccc(F)cc1F` [FLUCONAZOLE], the IC50 in test [8] is over 300 µM; in test [9] it was over 0.3 µM; in test [13], over 0.3 µM; in test [10] it was 5 µM; in [12], over 300 µM.

`Cc1cc(O)c2c(c1)C(O)([C@@H]1O[C@@H](C)[C@H](O)[C@@H](O)[C@H]1O)c1ccc([C@H]3c4cccc(O)c4C(=O)c4c(O)cc(C)c(O[C@@H]5OC[C@@H](O)[C@H](O)[C@H]5O)c43)c(O)c1C2=O` (some centres undefined): the “growth inhibition (GI)” value in test [1], in test [2], in [3], in test [4], in test [5] and in [6] was “inactive” in each case. For the same compound, the “growth inhibition (GI)” value in test [7] is “inactive”.

Take `COc1cc(O)c(C(C)=O)c(O)c1C1=C(C)C=C(O)C2C(=O)c3c(O)cccc3C(=O)C12` (centres undefined): the “growth inhibition (GI)” value in test [1], in test [2], in test [3], in test [4], in [5] and in test [6] was “inactive” throughout. The “growth inhibition (GI)” value in [7] is “inactive”.

In the case of `COc1cc(OC)c(C2=C3C(=O)C(C)=CC(O)=C3C(=O)c3c(O)cccc32)c(O)c1C(C)=O`, the “growth inhibition (GI)” value in [1], in test [2], in test [3], in test [4], in [5] and in [6] was “inactive” throughout. Further, the “growth inhibition (GI)” value in [7] was “inactive”.

Take `COc1cc(OC)c(C2=C(C)C=C(O)C3C(=O)c4c(O)cccc4C(=O)C23)c(O)c1C(C)=O` (centres undefined): the “growth inhibition (GI)” value in test [1], in test [2], in test [3], in test [4], in test [5] and in [6] was “inactive” each time. For the same compound, the “growth inhibition (GI)” value in test [7] was “inactive”.

Turning to `CN[C@H](CC(C)C)C(=O)N[C@H]1C(=O)N[C@@H](CC(N)=O)C(=O)N[C@H]2C(=O)N[C@H]3C(=O)N[C@H](C(=O)N[C@H](C(=O)O)c4cc(O)cc(O)c4-c4cc3ccc4O)[C@H](O)c3ccc(c(Cl)c3)Oc3cc2cc(c3O[C@@H]2O[C@H](CO)[C@@H](O)[C@H](O)[C@H]2O[C@H]2C[C@](C)(N)[C@H](O)[C@H](C)O2)Oc2ccc(cc2Cl)[C@H]1O` [VANCOMYCIN], the IC50 in test [8] is over 70 µM; in test [9], over 0.07 µM; in test [13] it was 0.04 µM; in test [10], over 70 µM; in test [11], over 70 µM; in test [12] it was 0.4 µM.

`CO/N=C(\C(=O)N[C@@H]1C(=O)N2C(C(=O)O)=C(COC(C)=O)CS[C@H]12)c1csc(N)n1` [CEFOTAXIME]: the IC50 in test [8] is over 200 µM; in [9], 0.03 µM; in test [13], 0.1 µM; in test [10], over 200 µM; in test [11], over 200 µM; in [12], 30 µM.

Turning to `C[C@@H](O)[C@H]1C(=O)N2C(C(=O)O)=C(S[C@@H]3CN[C@H](C(=O)N(C)C)C3)[C@H](C)[C@H]12` [MEROPENEM], the IC50 is over 300 µM in test [8]; 0.02 µM in [9]; 0.01 µM in [13]; over 300 µM in [10]; over 300 µM in test [11]; 10 µM in test [12].

As to `COc1cc(O)c2c(c1)C(=O)c1cc(O[C@@H]3O[C@H](CO)[C@@H](O)[C@H](O)[C@H]3O)c(C(=O)O)c(C)c1C2=O`, the “growth inhibition (GI)” value in [1], in test [2], in test [3], in test [4], in [5] and in [6] was “inactive” in each case. In addition, the “growth inhibition (GI)” value in [7] was “inactive”.

In the case of `Cc1cc(O)c2c(c1)C(O)([C@@H]1O[C@@H](C)[C@H](O)[C@@H](O)[C@H]1O)c1ccc([C@H]3c4cccc(O)c4C(=O)c4c(O)cc(C)c(O)c43)c(O)c1C2=O` (some centres undefined), the IC50 is over 30 µM in [8], over 30 µM in [10], over 30 µM in test [11] and 20 µM in [12].
